The compounds below were run on L1 larvae of Lucilia sericata (assay: Action against L1 larvae of Lucilia sericata). Conditions: 96 h, read-out: action (mortality count).
Assay type: in vivo
Experimental: 1 ml of an aqueous suspension of test compound is mixed with 3 ml of a special larval culture medium at about 50° C. such that a homogeneous composition containing 250 ppm or 125 ppm of active ingredient is obtained. About 30 Lucilia sericata larvae (L1) are put into each test tube sample. A mortality count is made after 4 days. The compounds of formula I, such as, for example, Nos. 3.2, 3.6, 3.7, 3.10, 3.34 and 3.38, achieved 100% action at 125 ppm.
Work on `COC1CC[C@@]2(O1)/C(C)=C/C[C@@H]1C[C@@H](C[C@]3(CC[C@H](C)[C@@H](C(C)C)O3)O1)OC(=O)[C@@H]1C=C(C)[C@@H](O)[C@H]3OC/C(=C\C=C\[C@@H]2C)[C@]31O` (single isomer, unassigned) [Compound 3.2] yielded a mortality at 125 ppm of 100%.
Work on `CCCOC1CC[C@@]2(O1)/C(C)=C/C[C@@H]1C[C@@H](C[C@]3(CC[C@H](C)[C@@H](C(C)C)O3)O1)OC(=O)[C@@H]1C=C(C)[C@@H](O)[C@H]3OC/C(=C\C=C\[C@@H]2C)[C@]31O` (single isomer, unassigned) [Compound 3.7] yielded a mortality at 125 ppm of 100%.
Work on `CC1=C[C@H]2C(=O)O[C@H]3C[C@@H](C/C=C(\C)[C@]4(CCC(OC(C)C)O4)[C@@H](C)/C=C/C=C4\CO[C@H]([C@@H]1O)[C@@]42O)O[C@@]1(CC[C@H](C)[C@@H](C(C)C)O1)C3` (single isomer, unassigned) [Compound 3.10] yielded a mortality at 125 ppm of 100%.
Compound `COCCOC1CC[C@@]2(O1)/C(C)=C/C[C@@H]1C[C@@H](C[C@]3(CC[C@H](C)[C@@H](C(C)C)O3)O1)OC(=O)[C@@H]1C=C(C)[C@@H](O)[C@H]3OC/C(=C\C=C\[C@@H]2C)[C@]31O` (single isomer, unassigned) [Compound 3.34] has a mortality at 125 ppm of 100%.
`CCOC1CC[C@@]2(O1)/C(C)=C/C[C@@H]1C[C@@H](C[C@]3(CC[C@H](C)[C@@H](C(C)C)O3)O1)OC(=O)[C@@H]1C=C(C)[C@@H](O)[C@H]3OC/C(=C\C=C\[C@@H]2C)[C@]31O` (stereo partly drawn) [Compound 3.6] gave a mortality at 125 ppm of 100%.
`CCOCCOC1CC[C@@]2(O1)/C(C)=C/C[C@@H]1C[C@@H](C[C@]3(CC[C@H](C)[C@@H](C(C)C)O3)O1)OC(=O)[C@@H]1C=C(C)[C@@H](O)[C@H]3OC/C(=C\C=C\[C@@H]2C)[C@]31O` (stereo partly drawn) [Compound 3.38] showed a mortality at 125 ppm of 100%.

Source: patent US4871719A, “Composition for controlling parasites in productive livestock” (Ciba-Geigy Corporation, priority 1987, dated 1989)
